{
  "source": "patent US20030171382A1",
  "about": "“Pharmaceutical composition for regeneration of cirrhotic liver” (priority 2002, published 2003)",
  "key": {"[1]": {"test_system": "rats with cirrhosis", "settings": "cirrhotic rats, 30 mg/kg, 3 times a week for 4 weeks; without oltipraz 48% after 4 weeks", "excerpt": "(§1) Sprague-Dawley rats that were 6 weeks old and 140-160 g were used in the examples below.\n(§2) By continually administering rats with dimethylnitrosamine (DMN) 3 times a week for 4 weeks, test models of cirrhotic livers were achieved. At such time, the rats showing only indications of liver fibrosis were placed in a separate group from rats showing indications of cirrhosis, and the survival rates of rats with cirrhosis and rats with liver fibrosis were studied during the next 4 weeks."}, "[2]": {"test_system": "rats with liver fibrosis", "settings": "30 mg/kg 3 times a week", "excerpt": "as §1, §2"}, "[3]": {"test_system": "rats with cirrhosis", "settings": "3 times a week for 4 weeks; for Fibrosis Scores / Knodell Scores: group with cirrhosis; for Fibrosis Scores: scale 0-4, untreated 3.8 ± 0.2; for Knodell Scores: untreated 14.0 ± 0.8", "excerpt": "as §1, §2\nThe histopathological effect of oltipraz on cirrhosis was studied.\n(§3) The curative effect of oltipraz on liver cirrhosis was histopathologically determined through fibrosis scores taken after Masson's trichrome staining and through Knodell scores which show the portal inflammation and the extent of fibrosis of the liver (FIG. 2, Table 1).\n(§4) Each value is represented by the average ± standard deviation. The number of animals used was 5 to 10. The significance of each group is determined by the paired Student's t-test. The significance is indicated by * p<0.05, ** p<0.01 compared to rats with cirrhosis or liver fibrosis. […] Degree of fibrosis 0=Normal, 1=Presence of weak fibrous tissue, 2=Presence of moderate fibrous tissue, 3=Presence of obvious fibrous tissue, 4=Evidence of severe fibrosis. Sum of values from periportal bridging (Greatest=10), intralobular cell loss (Greatest=4), portal inflammation (Greatest=4), and fibrosis (Greatest=4) yields the Knodell score."}, "[4]": {"test_system": "rats with liver fibrosis", "settings": "group with fibrosis; for Fibrosis Scores: scale 0-4, untreated 2.2 ± 0.5; for Knodell Scores: untreated 6.0 ± 1.2", "excerpt": "as §1, §2, §3, §4"}, "[5]": {"test_system": "rats with cirrhosis", "settings": "for ALT in blood plasma / AST in blood plasma / Bilirubin in blood plasma / Cholesterol in blood plasma: group with cirrhosis; for ALT in blood plasma: untreated 138 ± 14, control 55 ± 4; for AST in blood plasma: untreated 275 ± 36, control 141 ± 18; for Bilirubin in blood plasma: untreated 2.7 ± 0.8, control 1.1 ± 0.1; for Cholesterol in blood plasma: untreated 152 ± 30, control 97 ± 6", "protocol": "as §1\nWhen the rats were administered with 15 mg/kg of oltipraz, 3 times a week for 4 weeks, the ALT and AST activity in the blood plasma was reduced, and when administered with 30 mg/kg, approximately 70% of the AST value lowered, showing a statistical significance (Table 2).\nThe amount of bilirubin in blood plasma is an indicator of the liver's capacity.\nEach value is represented by the average ± standard deviation. The number of animals used was 8 to 11. The significance of each group is determined by the paired Student's t-test. The significance is indicated by * p<0.05, compared to control and # p<0.05 compared to rats with cirrhosis."}, "[6]": {"test_system": "cirrhotic rats", "settings": "index 0-3, untreated 1.7", "excerpt": "as §1\nAnother representative clinical symptom of cirrhosis is the accumulation of ascites. […] The significance is indicated by ** p<0.01, compared to control and # p<0.05 compared to rats with cirrhosis."}, "[7]": {"test_system": "cirrhotic rats", "settings": "30 mg/kg, 3 times a week for 4 weeks", "excerpt": "as §1\nAscites are formed when the synthesis of the blood plasma protein (especially albumin) is reduced in the liver tissues, bringing a disturbance in maintaining the equilibrium of the osmotic pressure in the blood. […] The significance is indicated by ** p<0.01, compared to control and # p<0.05 compared to rats with cirrhosis."}, "[8]": {"test_system": "cirrhotic rats", "settings": "3 times a week for 4 weeks, untreated approximately 56% of normal", "excerpt": "as §1\nCirrhosis is not only responsible for diminishing of a liver's function, but also for atrophy of the liver tissues. […] Since weight loss accompanies cirrhosis, in order to standardize the test results, the weight of the brain, which is normally not affected by cirrhosis, was used as the comparative weight to obtain the changes in the weights. The significance is indicated by ** p<0.01, compared to control and # p<0.05 compared to rats with cirrhosis."}, "[9]": {"test_system": "cirrhotic rats", "settings": "30 mg/kg, 3 times a week for 4 weeks", "excerpt": "as §1\nThe left side of FIG. 4b is a photograph of liver tissue, obtained after administration of oltipraz to cirrhotic rats, taken following Masson's trichrome staining.", "remark": "listed apart in the source"}, "[10]": {"test_system": "Thy1.1 and Flt-3", "settings": "cirrhotic rats, 30 mg/kg, 3 times a week for 4 weeks; compared to untreated cirrhotic rats", "excerpt": "The cells, which regenerate to liver tissues, are known to originate from stem cells."}, "[11]": {"test_system": "c-Met", "settings": "cirrhotic rats, 30 mg/kg, 3 times a week for 4 weeks; versus un-administered rats", "excerpt": "c-Met is a Hepatocyte Growth Factor (HGF) receptor, applicable in proliferation and differentiation of the liver cells. […] When c-Met is not appropriately present, even with the presence of HGF, liver tissues will not form."}, "[12]": {"test_system": "C/EBP-β and C/EBP-α", "settings": "cirrhotic rats, 30 mg/kg, 3 times a week for 4 weeks", "protocol": "With the importance of C/EBP in the regulation of liver regeneration in mind, the expression of C/EBP-β and C/EBP-α in oltipraz administered (30 mg/kg, 3 times a week for 4 weeks) cirrhotic rats were examined."}, "[13]": {"test_system": "C/EBP-β", "settings": "rat hepatocytes, 30 μM for 6 hours", "protocol": "Afterwards, to study whether oltipraz promotes translocation of C/EBP-β to the nucleus, rat hepatocytes were incubated with oltipraz at the concentration of 30 μM for 6 hours."}, "[14]": {"test_system": "PCNA", "settings": "cirrhotic rats, 30 mg/kg, 3 times a week for 4 weeks; compared to cirrhotic rat without oltipraz", "procedure": "PCNA immunochemical analysis is done with a specific antibody for PCNA (Santa Cruz Biotech). Analysis was carried out by indirect Avidin-Biotin-Alkaline-Phosphatase technique, according to the protocol provided by the manufacturer (InnoGenex). […] By using blocking serum, nonspecific antibody bindings were prevented. Then, in a humidified chamber, the slices were incubated with antibodies for 30 minutes at room temperature. After the incubation, Phosphate Buffered Saline (PBS) with 0.1% Tween-20 was used to rinse the slides. The slices were subjected to biotinylated 2nd antibodies and reacted for 5 minutes at 37° C. followed by additional reaction for 5 minutes at 37° C. with streptavidin-conjugated alkaline phosphatase added. Then, 5-bromo-4-chloro-3-indolyl-phosphate (BCIP) and nitro-blue-tetrazolium (NBT) were used as the phosphatase substrate to be incubated with the slices on the slide until proper colors became visible. Afterwards, the slices were again stained with nuclear fast red."}, "[15]": {"test_system": "PCNA", "settings": "cirrhotic rats, 30 mg/kg, 3 times a week for 4 weeks; versus control or untreated cirrhotic rats", "procedure": "Nuclear fractions of the liver from the control rats, cirrhotic rats and oltipraz administered (30 mg/kg, 3 times a week for 4 weeks) cirrhotic rats were dissolved in a diluting solution containing sodium dodecyl sulfate (SDS) to form a sample and stored at −70° C. After SDS-polyacrylamide gel electrophoresis, immunoblot analysis was carried out. The sample was fractionated by using 12% gel electrophoresis and electrically transferred to nitrocellulose membrane. The nitrocellulose membrane was incubated with polyclonal mouse anti-PCNA antibody (1:1000) (Santa Cruz Biotech) and then incubated again with horseradish peroxidase-conjugated secondary antibody. Lastly, ECL chemiluminescence kit manufactured by Amersham company was used to develop the band."}, "[16]": {"test_system": "C/EBP-β and C/EBP-α", "settings": "primary cultured hepatocytes, 30 μM"}, "[17]": {"test_system": "C/EBP", "settings": "hepatocytes isolated from cirrhotic rats incubated with oltipraz"}, "[18]": {"settings": "15 mg/kg, 3 times a week for 4 weeks, 15 mg/kg"}, "[19]": {"settings": "15 mg/kg, 3 times a week for 4 weeks, listed as oltipraz, 15 mg/kg"}},
  "note": "Like-named read-outs stand apart in the source and are kept apart here. Marks after values point to notes of the source that are not given here.",
  "data": [
    {"smiles": "Cc1c(-c2cnccn2)ssc1=S", "note": "[Oltipraz, 5-(2-pyrazinyl)-4-methyl-1,2-dithiol-3-thione]", "values": [
      {"measurement": "survival rate", "setting": "[1]", "result": 83, "unit": "%"},
      {"measurement": "death of rats", "setting": "[2]", "result": "no death"},
      {"measurement": "accumulation of fibers in liver tissue", "setting": "[3]; cirrhotic rats, 15 or 30 mg/kg", "result": "reduced in a dose-dependent manner"},
      {"measurement": "Fibrosis Scores", "setting": "[3]; 15 mg/kg", "result": "2.9 ± 0.4"},
      {"measurement": "Knodell Scores", "setting": "[3]; 15 mg/kg", "result": "8.7 ± 1.1**"},
      {"measurement": "Fibrosis Scores", "setting": "[3]; 30 mg/kg", "result": "2.8 ± 1.1*"},
      {"measurement": "Knodell Scores", "setting": "[3]; 30 mg/kg", "result": "6.8 ± 2.5**"},
      {"measurement": "Fibrosis Scores", "setting": "[4]; 15 mg/kg", "result": "2.8 ± 0.4"},
      {"measurement": "Knodell Scores", "setting": "[4]; 15 mg/kg", "result": "7.0 ± 1.2"},
      {"measurement": "Fibrosis Scores", "setting": "[4]; 30 mg/kg", "result": "1.0 ± 0.0**"},
      {"measurement": "Knodell Scores", "setting": "[4]; 30 mg/kg", "result": "2.6 ± 0.4*"},
      {"measurement": "total cholesterol level in blood plasma", "setting": "[5]; cirrhotic rats treated with oltipraz (dose not given)", "result": "did not show noticeable change"},
      {"measurement": "AST value lowered", "setting": "[5]; cirrhotic rats, 30 mg/kg", "result": "approximately 70%"},
      {"measurement": "amount of bilirubin in blood plasma", "setting": "[5]; cirrhotic rats, oltipraz administration (dose not given)", "result": "tended to be reduced"},
      {"measurement": "ALT in blood plasma", "setting": "[5]; [18]", "result": "124 ± 47"},
      {"measurement": "ALT in blood plasma", "setting": "[5]; [19]", "result": "reduced"},
      {"measurement": "AST in blood plasma", "setting": "[5]; [18]", "result": "206 ± 24"},
      {"measurement": "AST in blood plasma", "setting": "[5]; [19]", "result": "reduced"},
      {"measurement": "Bilirubin in blood plasma", "setting": "[5]; 15 mg/kg", "result": "1.8 ± 0.4"},
      {"measurement": "Cholesterol in blood plasma", "setting": "[5]; 15 mg/kg", "result": "116 ± 9"},
      {"measurement": "Bilirubin in blood plasma", "setting": "[5]; 30 mg/kg", "result": "1.4 ± 0.2"},
      {"measurement": "ALT in blood plasma", "setting": "[5]; 30 mg/kg", "result": "110 ± 39"},
      {"measurement": "Cholesterol in blood plasma", "setting": "[5]; 30 mg/kg", "result": "104 ± 7"},
      {"measurement": "AST in blood plasma", "setting": "[5]; 30 mg/kg", "result": "185 ± 22^#"},
      {"measurement": "ascites formation index", "setting": "[6]; 15 mg/kg", "result": 0.9},
      {"measurement": "ascites formation index", "setting": "[6]; 30 mg/kg", "result": 0.4},
      {"measurement": "amount of albumin in the blood plasma", "setting": "[7]", "result": "normal albumin content was recovered"},
      {"measurement": "liver weights", "setting": "[8]; 15 mg/kg", "result": "recovered almost to the normal weights"},
      {"measurement": "liver weights", "setting": "[8]; 30 mg/kg", "result": "recovered almost to the normal weights"},
      {"measurement": "division of the liver cells", "setting": "[9]", "result": "clearly shows the dividing cells"},
      {"measurement": "number of cells containing Thy1.1 and Flt-3", "setting": "[10]", "result": "considerable decline"},
      {"measurement": "expression of c-Met", "setting": "[11]", "result": "noticeably greater"},
      {"measurement": "appearance of liver-enriched inhibitory protein (LIP)", "setting": "[12]", "result": "almost completely disappeared"},
      {"measurement": "expression of C/EBP-α", "setting": "[12]", "result": "noticeably recovered"},
      {"measurement": "expression of C/EBP-β", "setting": "[12]", "result": "increased"},
      {"measurement": "translocation of C/EBP-β to the nucleus", "setting": "[13]", "result": "clearly promoted translocation"},
      {"measurement": "occurrence of PCNA (cells with PCNA)", "setting": "[14]", "result": "approximately twice more frequent"},
      {"measurement": "expression of PCNA (36 kDa band intensity)", "setting": "[15]", "result": "significant increase in the expression of PCNA"},
      {"measurement": "amount of C/EBP-α in the nucleus of the liver cells", "setting": "[16]", "result": "gradually increased"},
      {"measurement": "amount of C/EBP-β in the nucleus of the liver cells", "setting": "[16]", "result": "gradually increased"},
      {"measurement": "amount of C/EBP in the nucleus", "setting": "[17]", "result": "no significant change was observed"}
    ]}
  ]
}
